Results from patent US9446044B2, “DYRK1 inhibitors and uses thereof” (DIAXONHIT, priority 2011, dated 2016).
Read-outs that look alike come from different tables or passages of the source.

Columns and labels:
DYRK1A = DYRK1A (Homo sapiens (Human), UniProt Q13627); experiment: DYRK1A kinase assay (HotSpot, Reaction Biology); format: biochemical; conditions: purified recombinant kinase, 10 μM ATP, room temperature 120 min
DYRK1B = DYRK1B (Homo sapiens (Human), UniProt Q9Y463); experiment: DYRK1B kinase assay (HotSpot, Reaction Biology); format: biochemical
DYRK1B, sequence (Q9Y463 whole entry): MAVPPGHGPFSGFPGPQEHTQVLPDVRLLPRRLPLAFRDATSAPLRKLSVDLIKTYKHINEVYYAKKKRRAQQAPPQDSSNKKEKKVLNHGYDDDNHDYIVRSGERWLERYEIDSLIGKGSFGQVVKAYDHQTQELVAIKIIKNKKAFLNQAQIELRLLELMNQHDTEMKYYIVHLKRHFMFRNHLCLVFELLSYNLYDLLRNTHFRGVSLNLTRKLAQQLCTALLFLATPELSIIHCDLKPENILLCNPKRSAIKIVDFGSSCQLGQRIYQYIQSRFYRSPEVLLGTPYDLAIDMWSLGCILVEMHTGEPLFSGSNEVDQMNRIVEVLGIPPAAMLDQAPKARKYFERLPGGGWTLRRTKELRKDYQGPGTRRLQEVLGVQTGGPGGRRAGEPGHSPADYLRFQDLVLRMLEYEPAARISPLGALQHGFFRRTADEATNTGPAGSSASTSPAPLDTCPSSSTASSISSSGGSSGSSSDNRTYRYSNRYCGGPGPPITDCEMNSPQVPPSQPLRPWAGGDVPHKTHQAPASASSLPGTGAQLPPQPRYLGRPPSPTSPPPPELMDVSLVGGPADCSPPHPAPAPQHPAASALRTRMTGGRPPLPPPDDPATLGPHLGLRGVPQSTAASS

[1] = purified recombinant kinase, 10 μM ATP, room temperature 120 min

Row | Structure (SMILES) | IC50 (DYRK1A) [nM] | IC50 (DYRK1B; [1]) [nM] | IC50 (DYRK1B) [nM]
1 | CCOC(=N)c1nc2ccc3ncnc(Nc4ccc(Br)cc4F)c3c2s1 [Compound 81, Ethyl 9-(4-bromo-2-fluorophenylamino)thiazolo[5,4-f]quinazoline-2-carbimidate] | 33.2 | 34.4 | –
2 | CC(C)OC(=N)c1nc2ccc3ncnc(Nc4ccc5c(c4)OCO5)c3c2s1 [Compound 85, isopropyl 9-(benzo[d][1,3]dioxol-5-ylamino)thiazolo[5,4-f]quinazoline-2-carbimidate] | 125 | – | 218
3 | NC(=O)c1nc2ccc3ncnc(Nc4ccc(F)cc4Br)c3c2s1 [Compound 86, 9-((2-bromo-4-fluorophenyl)amino)thiazolo[5,4-f]quinazoline-2-carboxamide] | 26.2 | 31.5 | –
4 | NC(=O)c1nc2ccc3ncnc(Nc4ccc(Cl)cc4Cl)c3c2s1 [Compound 87, 9-((2,4-dichlorophenyl)amino)thiazolo[5,4-f]quinazoline-2-carboxamide] | 34.9 | 43.4 | –
5 | CCCCOC(=N)c1nc2ccc3ncnc(Nc4ccc(Cl)cc4Cl)c3c2s1 [Compound 88, butyl 9-((2,4-dichlorophenyl)amino)thiazolo[5,4-f]quinazoline-2-carbimidate] | 47.5 | 69.4 | –
6 | CC(C)(C)CNc1ncnc2ccc(-c3ccc4c(c3)OCO4)cc12 [NCGC-00189310, reference compound] | 2.2 | 20.6 | –

Now from value to compound, other results behind:

Row | IC50 (DYRK1A) [nM] | IC50 (DYRK1B; [1]) [nM] | Structure (SMILES) | IC50 (DYRK1B) [nM]
7 | 18.3 | 25.2 | COC(=N)c1nc2ccc3ncnc(Nc4ccc(C(F)(F)F)cc4)c3c2s1 [Compound 80, Methyl 9-(4-(trifluoromethyl)phenylamino)thiazolo[5,4-f]quinazoline-2-carbimidate] | –
8 | 6.02 | 7.72 | CCOC(=N)c1nc2ccc3ncnc(Nc4ccc5c(c4)OCO5)c3c2s1 [Compound 82, Ethyl 9-(benzo[d][1,3]dioxol-5-ylamino)thiazolo[5,4-j]quinazoline-2-carbimidate] | –
9 | 33.9 | 37.3 | N=C(OCc1ccccc1)c1nc2ccc3ncnc(Nc4ccc5c(c4)OCO5)c3c2s1 [Compound 83, benzyl 9-(benzo[d][1,3]dioxol-5-ylamino)thiazolo[5,4-f]quinazoline-2-carbimidate] | –
10 | 5.1 | 7.7 | COC(=O)c1nc2ccc3ncnc(Nc4ccc(Cl)cc4Cl)c3c2s1 [Compound 89, methyl 9-((2,4-dichlorophenyl)amino)thiazolo[5,4-f]quinazoline-2-carboxylate] | –
